Measured values: paper PMC11435058, “Synthesis of New Thiazole-Privileged Chalcones as Tubulin Polymerization Inhibitors with Potential Anticancer Activities” (Pharmaceuticals, 2024)

Tests used:
RPMI-8226 = test: NCI-60 anticancer screen (SRB; single dose and five doses); conditions: Homo sapiens; for activity at 10 µM: RPMI-8226, 48 h, read-out: Growth Percentage; for CC50: RPMI-8226, read-out: LC50; for IC (TGI): RPMI-8226, read-out: TGI
NCI-H460 = test: as above; conditions: Homo sapiens; for activity at 10 µM: NCI-H460, 48 h, read-out: Growth Percentage; for CC50: NCI-H460, read-out: LC50; for IC (TGI): NCI-H460, read-out: TGI
KM12 = test: as above; conditions: Homo sapiens; for activity at 10 µM: KM12, 48 h, read-out: Growth Percentage; for IC (TGI): KM12, read-out: TGI
OVCAR-5 = test: as above; conditions: Homo sapiens; for activity at 10 µM: OVCAR-5, 48 h, read-out: Growth Percentage; for CC50: OVCAR-5, read-out: LC50; for IC (TGI): OVCAR-5, read-out: TGI
A549/ATCC = test: as above; conditions: Homo sapiens; for activity at 10 µM: A549, 48 h, read-out: Growth Percentage; for CC50: A549, read-out: LC50; for IC (TGI): A549, read-out: TGI
NCI/ADR-RES = test: as above; conditions: Homo sapiens; for activity at 10 µM: 48 h, read-out: Growth Percentage; for CC50: read-out: LC50; for IC (TGI): read-out: TGI
LOX IMVI = test: as above; conditions: Homo sapiens; for activity at 10 µM: 48 h, read-out: Growth Percentage; for CC50: read-out: LC50; for IC (TGI): read-out: TGI
tubulin = test: In vitro tubulin polymerization inhibition assay; format: biochemical; conditions: 4 mg/mL tubulin, 37°C, absorbance at 340 nm
Experimental: 4.2.2. In Vitro Tubulin Polymerization Inhibition Assay.
2p, and the reference drug CD -4) with the microtubule system. Specifically, the in vitro inhibition of tubulin polymerization was evaluated for these compounds. The standard tubulin polymerization reaction was carried out, containing 100 μL of 4 mg/mL tubulin in a buffer solution of 80 mM PIPES (pH 6.9), 0.5 mM EGTA, 2 mM MgCl2, and 1 mM GTP. Polymerization was initiated by incubating the reaction […]
Under these conditions, polymerization typically reaches a maximum absorbance of […]
growth, and steady state. In this experimental set up, an absorbance of 0.1 at 340 nm corresponds to approximately 1 mg/mL of polymerized tubulin, meaning that around […]
40% of the tubulin is polymerized, allowing for the detection of both enhancers and inhibitors of polymerization. The inhibitory effect of each compound on tubulin polymerization was quantified by determining the IC50 values, which were reported as the mean ± standard deviation from three independent experiments. […]

SR = test: NCI-60 anticancer screen (SRB; single dose and five doses); conditions: Homo sapiens; for activity at 10 µM: 48 h, read-out: Growth Percentage; for CC50: read-out: LC50; for IC (TGI): read-out: TGI

Structure (SMILES) | GI50 (RPMI-8226; RPMI-8226) [µM] | activity at 10 µM (RPMI-8226) [%] | CC50 (RPMI-8226) [µM] | IC (TGI) (RPMI-8226) [µM] | GI50 (NCI-H460; NCI-H460) [µM] | activity at 10 µM (NCI-H460) [%] | CC50 (NCI-H460) [µM] | IC (TGI) (NCI-H460) [µM] | GI50 (KM12; KM12) [µM] | activity at 10 µM (KM12) [%] | IC (TGI) (KM12) [µM] | GI50 (OVCAR-5; OVCAR-5) [µM] | activity at 10 µM (OVCAR-5) [%] | CC50 (OVCAR-5) [µM] | IC (TGI) (OVCAR-5) [µM] | GI50 (A549/ATCC; A549) [µM] | activity at 10 µM (A549/ATCC) [%] | CC50 (A549/ATCC) [µM] | IC (TGI) (A549/ATCC) [µM] | GI50 (NCI/ADR-RES) [µM] | other results
Cc1[nH]c(=S)sc1C(=O)/C=C/c1ccc(Br)cc1 [2g, (E)-3-(4-Bromophenyl)-1-(4-Methyl-2-Thioxo-2,3-Dihydrothiazol-5-yl)Prop-2-En-1-One] | 2.29 | 1.4 | > 100 | > 100 | 14.3 | 39.1 | 80.9 | 34.1 | 3.27 | 1.17 | 11 | 15.4 | 116 | 57.3 | 29.7 | 11.7 | 64.1 | 55.3 | 25.4 | 6.04 | CC50 (KM12; KM12, read-out: LC50): 35.9 µM; activity at 10 µM (NCI/ADR-RES): -13.9%; CC50 (NCI/ADR-RES): 73.4 µM; IC (TGI) (NCI/ADR-RES): 23.4 µM; GI50 (LOX IMVI): 2.8 µM; activity at 10 µM (LOX IMVI): -5.17%; CC50 (LOX IMVI): 33.7 µM; IC (TGI) (LOX IMVI): 10.2 µM; IC50 (tubulin): 18.5 µM; GI50 (SR): 2.83 µM; activity at 10 µM (SR): 8.46%; CC50 (SR): > 100 µM; IC (TGI) (SR): 23.2 µM
Cc1[nH]c(=S)sc1C(=O)/C=C/c1cccc(Cl)c1 [2e, (E)-3-(3-Chlorophenyl)-1-(4-Methyl-2-Thioxo-2,3-Dihydrothiazol-5-yl)Prop-2-En-1-One] | 2.04 | 10.4 | > 100 | 5.5 | 2.75 | 12.1 | 45.7 | 7.59 | 1.95 | -30.7 | 3.89 | 5.25 | 36.4 | 57.5 | 19.9 | 4.79 | 26.5 | > 100 | 47.9 | 2.88 | IC50 (RPMI-8226; RPMI-8226): 3.72 µM; IC50 (NCI-H460; NCI-H460): 3.55 µM; IC50 (KM12; KM12): 3.39 µM; IC50 (OVCAR-5; OVCAR-5): 15.5 µM; IC50 (A549/ATCC; A549): 7.41 µM; IC50 (NCI/ADR-RES): 5.01 µM; activity at 10 µM (NCI/ADR-RES): -5.11%; CC50 (NCI/ADR-RES): > 100 µM; IC (TGI) (NCI/ADR-RES): > 100 µM; GI50 (LOX IMVI): 1.66 µM; IC50 (LOX IMVI): 2.88 µM; activity at 10 µM (LOX IMVI): -26.1%; CC50 (LOX IMVI): 5.75 µM; IC (TGI) (LOX IMVI): 3.09 µM; IC50 (tubulin): 4.93 µM; GI50 (SR): 2.63 µM; IC50 (SR): 3.89 µM; activity at 10 µM (SR): 3.42%; CC50 (SR): > 100 µM; IC (TGI) (SR): > 100 µM
